Laboratory results as given in PubChem BioAssay (NCI).
Values joined by “and” are separate entries in the source; they are usually repeats but may differ in a detail not shown here. Equal entries are not always repeated.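 1) Cells in 96-well plates. 2) Compound, 48 h, 5 concentrations. 3) Linear interpolation between surrounding doses. 4) Unreached endpoint = highest concentration. GI50: concentration for 50% inhibition of growth. At the TGI there is no net growth.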 *1 amine or outer side, *2 acyl side, *3 side chain or, on linkers, in order; H or OH if unused. Where a SMILES comes first, the peptide text is derived from it. [ ]: non-standard residue; d: D form. The star is where a group is joined. X12 = NCCCCC(N[*:1])C(=O)CN1CCCC1C(=O)[*:2]; Pentadecanoyl = CCCCCCCCCCCCCCC(=O)*

Columns and labels:
Test in all cases: NCI tumour cell line growth inhibition, 48 h
A549 NSCLC = test system: A549 NSCLC
CAKI-1 renal = test system: CAKI-1 renal
K-562 leukemia = test system: K-562 leukemia
MDA-MB-231 breast = test system: MDA-MB-231 breast
MDA-MB-435 = test system: MDA-MB-435
NCI-H522 lung = test system: NCI-H522 lung
OVCAR-4 ovarian = test system: OVCAR-4 ovarian
SK-MEL-5 melanoma = test system: SK-MEL-5 melanoma
SNB-75 CNS = test system: SNB-75 CNS
UO-31 renal = test system: UO-31 renal

Compound | TGI (A549 NSCLC) | TGI (CAKI-1 renal) | TGI (K-562 leukemia) | TGI (MDA-MB-231 breast) | TGI (MDA-MB-435) | TGI (NCI-H522 lung) | TGI (OVCAR-4 ovarian) | TGI (SK-MEL-5 melanoma) | TGI (SNB-75 CNS) | TGI (UO-31 renal) | GI50 (A549 NSCLC) | GI50 (CAKI-1 renal) | GI50 (K-562 leukemia) | GI50 (MDA-MB-231 breast) | GI50 (MDA-MB-435) | GI50 (NCI-H522 lung) | GI50 (OVCAR-4 ovarian) | GI50 (SK-MEL-5 melanoma) | GI50 (SNB-75 CNS) | GI50 (UO-31 renal)
CN1CCN(C2CC(=O)c3c(Cl)sc(Cl)c32)CC1 (stereo not given) | > 52.9 µM | 39.6 µM | > 100 µM | 48 µM | 16.5 µM | 13.3 µM | > 42.9 µM | > 56.4 µM | 41.5 µM | 17 µM | – | – | – | – | – | – | – | – | – | –
CC(C)(C)C1=CC(O)(c2c3ccccc3c(C3(O)C=C(C(C)(C)C)C(=O)C(C(C)(C)C)=C3)c3ccccc23)C=C(C(C)(C)C)C1=O | > 100 µM | > 100 µM | > 100 µM | > 100 µM | 0.0354 µM | > 100 µM | > 100 µM | > 100 µM | > 100 µM | > 100 µM | – | – | – | – | – | – | – | – | – | –
CCOC(=O)/C=C/C(Br)=C(Br)/C=C/C(=O)OCC | 56 µM | 13.9 µM | 10.9 µM | 31.1 µM | 18.1 µM | 7.14 µM | 34.8 µM | 27.7 µM | 26 µM | 23.8 µM | – | – | – | – | – | – | – | – | – | –
[O-][n+]1cc(SCc2ccccc2)ncc1SCc1ccccc1 | > 10 µM | > 10 µM | > 10 µM | > 10 µM | > 10 µM | > 10 µM | > 10 µM | > 10 µM | > 10 µM | > 10 µM | – | – | – | – | – | – | – | – | – | –
CCCCCCCCCCCCCCC(=O)NC(CCCCN)C(=O)CN1CCCC1C(=O)NCC(=O)NC(Cc1ccccc1)C(=O)N1CCCC1C(=O)NC(CO)C(=O)NC(Cc1ccc(O)cc1)C(=O)NC(CCCCN)C(=O)NC(CC(C)C)C(=O)NC(CCCN=C(N)N)C(=O)N1CCCC1C(=O)NCC(N)=O (stereo not given) (Pentadecanoyl-[X12]GFPSYKLRPG-NH2; configuration not given here) | 47.6 µM | 48.7 µM | 40 µM | 32.5 µM | 89.3 µM | 55.6 µM | 87.2 µM | > 100 µM | 58.5 µM | 60.2 µM | 23.7 µM | 20.6 µM | 19.5 µM | 16.7 µM | 28.2 µM | 23.1 µM | 34.8 µM | 30.5 µM | 27.6 µM | 22.6 µM
CC(=O)OCC12C(OC(C)=O)C[C@@H](C)C3(CC(c4ccoc4)OC3=O)C1CCC(OC(C)=O)C21CO1 (stereo not given in full) | > 100 µM | > 100 µM | > 100 µM | > 100 µM | > 100 µM | > 100 µM | > 100 µM | > 100 µM | > 100 µM | > 100 µM | – | – | – | – | – | – | – | – | – | –
COC1OC(=O)C(OC)C(OC)C1OC (stereo not given) | > 100 µM | > 100 µM | > 100 µM | > 100 µM | > 100 µM | > 100 µM | > 100 µM | > 100 µM | > 100 µM | > 100 µM | – | – | – | – | – | – | – | – | – | –
O=C(CSCC(=O)N/N=C\c1cccc(Br)c1)N/N=C\c1cccc(Br)c1 | 31.5 µM | 37.1 µM | 68.4 µM | 26.2 µM | 44.7 µM | 51.9 µM | 69.9 µM | 42.3 µM | 39.4 µM | 33.1 µM | – | – | – | – | – | – | – | – | – | –
COc1ccc2c(-c3csc(-c4c[nH]c5ccccc45)n3)c[nH]c2c1 | 53.7 µM | 32.8 µM | > 22.1 µM | > 37.6 µM | > 100 µM | 25.4 µM | 69.8 µM | 30.6 µM | 91.7 µM | 30.6 µM | – | – | – | – | – | – | – | – | – | –
CCOC(=O)c1sc2[n+](c1C)C(=O)/C(=C/c1ccccc1Cl)S2 | > 56.8 µM | 24.5 µM | 24.2 µM | > 27.8 µM | > 100 µM | 7.65 µM | > 100 µM | 1.89 µM | > 54.3 µM | 25 µM | – | – | – | – | – | – | – | – | – | –
O=C(OCC(OC(=O)c1ccccc1)C1CC(C(O)C2CCCCC2)C(=O)O1)c1ccccc1 (stereo not given) | – | > 100 µM | 50.5 µM | > 100 µM | > 100 µM | > 100 µM | > 100 µM | 32.2 µM | > 100 µM | > 100 µM | – | – | – | – | – | – | – | – | – | –
Cc1nc2cccc(F)c2c(=O)n1-c1nnc(C2CC2)s1 | > 10 µM | > 10 µM | > 10 µM | > 10 µM | > 10 µM | > 10 µM | > 10 µM | > 10 µM | > 10 µM | > 10 µM | – | – | – | – | – | – | – | – | – | –
Cn1c(-c2cccs2)cc(-c2ccsc2)c1-c1ccsc1 | > 100 µM | > 100 µM | > 100 µM | > 100 µM | > 100 µM | > 100 µM | > 100 µM | > 100 µM | > 100 µM | > 100 µM | – | – | – | – | – | – | – | – | – | –
Cc1cc(C)c(N)c(CO)c1 | > 100 µM | > 32.1 µM and 27.5 µM | > 100 µM | > 100 µM | > 100 µM | > 100 µM | > 100 µM | > 100 µM | > 100 µM | > 100 µM | – | – | – | – | – | > 100 µM and 42.5 µM | – | – | – | –
N#Cc1nc(-c2ccccn2)c(-c2ccccn2)nc1C#N | 19.8 µM | 6.81 µM | 19.4 µM | > 53 µM | 22.4 µM | 16.6 µM | 12.3 µM | > 36.5 µM | 22.9 µM | 5.64 µM | – | – | – | – | – | – | – | – | – | –
CC(=O)N1C(=O)/C(=C\C(=O)c2ccc(Cl)cc2)c2ccccc21 | 22.9 µM | 27.6 µM | > 100 µM | 30.3 µM | 36.5 µM | 26.9 µM | 35.9 µM | 39.8 µM | 35 µM | 29.6 µM | – | – | – | – | – | – | – | – | – | –
